Source: ChEMBL document CHEMBL1201862, “PubChem BioAssay data set” (2004)
The source made the active and inactive calls.

What was measured:
[1] = target: Disintegrin and metalloproteinase domain-containing protein 17 (Homo sapiens, UniProt P78536); assay: exosite inhibitors of ADAM17, dose response, biochemical (AID 743260)
[2] = inhibition of ADAM10 peptide cleavage – biochemical, FRET peptide substrate, recombinant human ADAM10, selectivity assay for ADAM17 exosite inhibitor project, dose response (AID 743259);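 note: ADAM10 enzyme cleaving a FRET peptide substrate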
Estrogen receptor beta [3] = target: T1, Estrogen receptor beta (Homo sapiens, UniProt Q92731);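 note: recombinant ER-beta bound to coactivator SRC1 peptide in presence of estradiol agonist; inhibitors block coactivator peptide binding and lower the FRET signal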
Estrogen receptor beta [4] = target: T1, Estrogen receptor beta; assay: blockers of SRC-3 recruitment to ERβ – biochemical, ELISA, streptavidin-HRP readout, orthogonal assay, confirmation (AID 1060)
[5] = M. tuberculosis H37Rv growth inhibitors, H37Rv strain (AID 1626); format: functional
[6] = HIV-1 Vif–A3G interaction blockers – biochemical, TR-FRET, GST-Vif 1-94, biotin-A3G peptide, dose response retest, primary screen (AID 1117319); format: functional;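 note: TR-FRET signal of purified GST-Vif binding a biotinylated A3G peptide; inhibitors lower the FRET signal by blocking Vif and A3G binding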
[7] = system: Streptococcus sp. 'group A'; assay: Streptococcus pyogenes SK(-)GAS viability under kanamycin – luminescence, BacTiterGlo, confirmation, counter-screen for streptokinase expression inhibitor project, dose response (AID 1900); format: functional, organism-based
Streptokinase A = target: T2, Streptokinase A (Streptococcus pyogenes serotype M1, UniProt P10520); assay: viability-normalized secreted streptokinase activity reduction – plasminogen activation absorbance, OD405, dose response (AID 1914); format: functional, Streptococcus pyogenes M1 GAS;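 note: secreted streptokinase activity via plasminogen activation per viability signal from cell pellet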
T2 sequence (P10520 whole entry): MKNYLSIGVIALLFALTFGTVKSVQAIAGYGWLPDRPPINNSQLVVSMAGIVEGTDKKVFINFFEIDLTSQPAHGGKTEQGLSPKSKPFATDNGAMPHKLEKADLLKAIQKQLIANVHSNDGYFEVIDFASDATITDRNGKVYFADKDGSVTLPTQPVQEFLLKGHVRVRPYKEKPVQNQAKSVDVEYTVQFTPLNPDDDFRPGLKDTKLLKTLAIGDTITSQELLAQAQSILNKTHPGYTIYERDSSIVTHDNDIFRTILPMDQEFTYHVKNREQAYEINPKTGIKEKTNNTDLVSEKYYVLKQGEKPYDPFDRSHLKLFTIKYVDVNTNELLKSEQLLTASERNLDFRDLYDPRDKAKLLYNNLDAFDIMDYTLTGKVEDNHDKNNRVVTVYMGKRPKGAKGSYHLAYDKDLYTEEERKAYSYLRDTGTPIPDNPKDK

Streptococcus = assay: GAS UMAA2166 growth inhibition – luminescence, BacTiterGlo, counter-screen for streptokinase expression inhibitor project, dose response (AID 1915); format: functional, organism-based;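 note: potency for reduction of bacterial viability or growth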
[8] = Luminescence Cell-Based Dose Retest to Confirm Inhibitors of Cancer Stem Cells. [Related pubchem assays (depositor defined):AID2717, AID2721]; format: functional; conditions: Homo sapiens
[9] = reduced cellular PGC1a acetyl-lysine signal – cell-based, cherry-picked samples, dose response (AID 720514); format: functional;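 note: potency may reflect raised or lowered acetylation signal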
[10] = NIH-3T3 fibroblast cytotoxicity, dose response, cytotoxicity control, cell-based, fluorescence, Alamar Blue, secondary assay (AID 2327); format: functional;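 note: NIH-3T3 mouse fibroblasts cultured with fluconazole at 8 µg/mL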
[11] = luciferase reporter signal suppression in cells – H4 neuroglioma cells, luminescence, dose response (AID 1990); format: functional, cell-based
cells [12] = format: functional, cell-based
[13] = Luminescence Cell-Based Dose Response HTS to Identify Inhibitors of 5'UTR Stem-Loop Driven Prion Protein mRNA Translation in H4 Neuroglioblastoma Cells. [Related pubchem assays: 1827 (Project Summary), 1813 (Primary HTS)]; format: functional
[14] = alpha-synuclein stem-loop luciferase translation blockers – H4 neuroglioma cells, luminescence, confirmation (AID 1988); format: functional, cell-based
[15] = fluconazole-exposed Candida albicans growth modulators – fluorescence, retest, confirmation (AID 2467); format: functional, cell-based
cells [16] = format: functional, cell-based; remark: listed apart in the source
[17] = target: Induced myeloid leukemia cell differentiation protein Mcl-1 (Homo sapiens, UniProt Q07820); format: functional
[18] = target: T3, Mannose-6-phosphate isomerase (Homo sapiens, UniProt P34949); assay: MPI inhibition at elevated mannose 6-phosphate – biochemical, fluorescence intensity, high mannose 6-phosphate, primary screen (AID 1220)
T3 sequence (P34949 whole entry): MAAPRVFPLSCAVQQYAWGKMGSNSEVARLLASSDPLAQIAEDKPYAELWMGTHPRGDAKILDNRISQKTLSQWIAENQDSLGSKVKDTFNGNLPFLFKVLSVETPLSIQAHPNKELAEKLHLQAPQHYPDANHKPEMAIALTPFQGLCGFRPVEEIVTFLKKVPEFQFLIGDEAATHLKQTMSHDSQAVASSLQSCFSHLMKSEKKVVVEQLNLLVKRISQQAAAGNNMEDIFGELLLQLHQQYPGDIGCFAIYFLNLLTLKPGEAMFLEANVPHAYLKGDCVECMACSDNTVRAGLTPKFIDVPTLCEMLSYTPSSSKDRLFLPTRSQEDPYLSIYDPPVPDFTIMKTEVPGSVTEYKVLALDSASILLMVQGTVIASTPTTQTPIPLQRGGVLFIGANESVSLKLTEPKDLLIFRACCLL

Vero = assay: viability of Vero cells under compound – cytotoxicity control for flavivirus capping enzyme inhibitors (AID 588742); format: functional; conditions: Chlorocebus sabaeus
Genome polyprotein = Genome polyprotein (dengue virus type 2, UniProt P29990); assay: flavivirus cap methylation enzyme inhibition – biochemical, confirmation dose response, primary screen (AID 588689); format: functional
[19] = viability loss in THP-1 monocytes – THP-1 cells, cytotoxicity control for Vif-APOBEC3G degradation inhibitor project, dose response (AID 1117359); format: functional; conditions: THP-1
Coagulation factor XII = target: T4, Coagulation factor XII (Homo sapiens, UniProt P00748); format: functional;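 note: activated factor XIIa alpha cleaving a fluorogenic AMC peptide substrate; inhibitor potency from loss of enzyme activity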
T4 sequence (P00748 whole entry): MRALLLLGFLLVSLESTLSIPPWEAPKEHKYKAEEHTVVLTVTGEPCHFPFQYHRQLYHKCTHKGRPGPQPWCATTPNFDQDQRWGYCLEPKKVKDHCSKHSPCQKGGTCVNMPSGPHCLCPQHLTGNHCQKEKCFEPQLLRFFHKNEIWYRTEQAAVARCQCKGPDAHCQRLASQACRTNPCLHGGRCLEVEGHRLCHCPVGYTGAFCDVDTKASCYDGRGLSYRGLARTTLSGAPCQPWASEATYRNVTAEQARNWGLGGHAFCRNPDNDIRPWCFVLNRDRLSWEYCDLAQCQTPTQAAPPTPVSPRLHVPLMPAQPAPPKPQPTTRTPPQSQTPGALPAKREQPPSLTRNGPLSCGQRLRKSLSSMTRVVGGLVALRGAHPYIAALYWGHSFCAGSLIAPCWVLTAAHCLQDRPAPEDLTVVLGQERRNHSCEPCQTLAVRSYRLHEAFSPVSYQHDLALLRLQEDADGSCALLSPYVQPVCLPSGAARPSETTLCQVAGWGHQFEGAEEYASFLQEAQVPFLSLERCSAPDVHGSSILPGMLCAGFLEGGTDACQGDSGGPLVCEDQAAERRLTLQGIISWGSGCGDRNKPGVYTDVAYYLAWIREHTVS

Estrogen receptor = target: T5, Estrogen receptor (Homo sapiens, UniProt P03372);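 note: potency for inhibiting coactivator peptide recruitment to the receptor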
T5 sequence (P03372 whole entry): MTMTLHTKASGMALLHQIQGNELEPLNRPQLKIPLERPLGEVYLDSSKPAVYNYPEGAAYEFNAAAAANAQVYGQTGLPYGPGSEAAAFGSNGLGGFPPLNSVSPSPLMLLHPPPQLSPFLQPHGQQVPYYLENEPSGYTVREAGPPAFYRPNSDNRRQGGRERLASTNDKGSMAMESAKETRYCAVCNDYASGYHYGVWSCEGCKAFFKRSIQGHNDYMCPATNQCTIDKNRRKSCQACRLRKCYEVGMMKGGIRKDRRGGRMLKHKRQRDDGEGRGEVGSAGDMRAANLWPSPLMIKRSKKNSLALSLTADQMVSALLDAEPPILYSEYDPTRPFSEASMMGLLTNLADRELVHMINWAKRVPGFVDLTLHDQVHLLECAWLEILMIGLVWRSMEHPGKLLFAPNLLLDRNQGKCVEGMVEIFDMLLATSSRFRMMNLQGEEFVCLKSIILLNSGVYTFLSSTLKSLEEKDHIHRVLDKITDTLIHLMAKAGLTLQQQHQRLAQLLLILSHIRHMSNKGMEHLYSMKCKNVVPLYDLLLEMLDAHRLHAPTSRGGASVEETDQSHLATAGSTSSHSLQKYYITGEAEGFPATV

[20] = target: Voltage-dependent T-type calcium channel subunit alpha-1H (Homo sapiens, UniProt O95180); format: functional;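 note: channel activity triggered by adding a high calcium stimulation buffer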
Protein skinhead-1 = target: T6, Protein skinhead-1 (Caenorhabditis elegans, UniProt P34707); format: functional
T6 sequence (P34707 whole entry): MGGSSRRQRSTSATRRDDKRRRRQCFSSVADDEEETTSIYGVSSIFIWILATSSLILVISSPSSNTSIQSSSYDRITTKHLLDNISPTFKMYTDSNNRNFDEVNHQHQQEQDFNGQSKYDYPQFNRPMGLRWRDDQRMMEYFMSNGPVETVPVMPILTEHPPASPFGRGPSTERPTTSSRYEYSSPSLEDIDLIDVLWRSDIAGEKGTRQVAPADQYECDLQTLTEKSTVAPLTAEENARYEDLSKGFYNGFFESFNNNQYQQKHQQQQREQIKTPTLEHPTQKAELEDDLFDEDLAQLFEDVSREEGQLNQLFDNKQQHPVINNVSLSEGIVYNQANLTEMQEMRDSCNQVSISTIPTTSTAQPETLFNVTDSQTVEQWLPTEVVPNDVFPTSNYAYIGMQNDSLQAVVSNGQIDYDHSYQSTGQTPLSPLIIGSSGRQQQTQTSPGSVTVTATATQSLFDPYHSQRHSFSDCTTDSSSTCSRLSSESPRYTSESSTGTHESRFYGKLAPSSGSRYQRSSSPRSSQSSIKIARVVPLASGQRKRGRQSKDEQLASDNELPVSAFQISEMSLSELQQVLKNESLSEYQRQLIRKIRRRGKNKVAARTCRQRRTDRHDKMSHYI

[21] = general mammalian cell viability loss – inhibitor set, cherry-pick, set 2, cytotoxicity control for miR-122 modulator project, dose response (AID 720697); format: functional, cell-based

Sequence of Disintegrin and metalloproteinase domain-containing protein 17 (P78536 whole entry, the tested form may be a part): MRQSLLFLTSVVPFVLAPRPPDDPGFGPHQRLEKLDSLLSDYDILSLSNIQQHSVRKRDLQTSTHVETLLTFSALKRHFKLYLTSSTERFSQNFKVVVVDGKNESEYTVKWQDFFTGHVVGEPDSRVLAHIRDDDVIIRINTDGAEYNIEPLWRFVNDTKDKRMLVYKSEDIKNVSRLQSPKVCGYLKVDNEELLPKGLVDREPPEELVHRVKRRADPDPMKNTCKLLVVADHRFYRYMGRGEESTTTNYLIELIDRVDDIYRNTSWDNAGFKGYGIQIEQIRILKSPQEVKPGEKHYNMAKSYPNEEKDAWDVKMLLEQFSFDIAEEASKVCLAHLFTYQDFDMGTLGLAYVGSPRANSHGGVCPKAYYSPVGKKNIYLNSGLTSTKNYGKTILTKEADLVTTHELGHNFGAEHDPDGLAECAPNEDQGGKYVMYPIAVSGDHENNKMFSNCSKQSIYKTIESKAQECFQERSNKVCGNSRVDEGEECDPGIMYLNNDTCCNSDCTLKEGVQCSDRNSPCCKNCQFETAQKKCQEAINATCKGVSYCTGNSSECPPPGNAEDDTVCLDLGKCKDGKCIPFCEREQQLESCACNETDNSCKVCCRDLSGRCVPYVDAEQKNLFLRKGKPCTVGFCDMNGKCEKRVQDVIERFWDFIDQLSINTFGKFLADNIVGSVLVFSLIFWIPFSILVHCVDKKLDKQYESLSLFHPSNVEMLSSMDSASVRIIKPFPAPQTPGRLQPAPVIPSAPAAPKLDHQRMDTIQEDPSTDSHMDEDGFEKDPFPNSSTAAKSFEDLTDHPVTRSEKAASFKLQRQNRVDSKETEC
T1 sequence (Q92731 whole entry): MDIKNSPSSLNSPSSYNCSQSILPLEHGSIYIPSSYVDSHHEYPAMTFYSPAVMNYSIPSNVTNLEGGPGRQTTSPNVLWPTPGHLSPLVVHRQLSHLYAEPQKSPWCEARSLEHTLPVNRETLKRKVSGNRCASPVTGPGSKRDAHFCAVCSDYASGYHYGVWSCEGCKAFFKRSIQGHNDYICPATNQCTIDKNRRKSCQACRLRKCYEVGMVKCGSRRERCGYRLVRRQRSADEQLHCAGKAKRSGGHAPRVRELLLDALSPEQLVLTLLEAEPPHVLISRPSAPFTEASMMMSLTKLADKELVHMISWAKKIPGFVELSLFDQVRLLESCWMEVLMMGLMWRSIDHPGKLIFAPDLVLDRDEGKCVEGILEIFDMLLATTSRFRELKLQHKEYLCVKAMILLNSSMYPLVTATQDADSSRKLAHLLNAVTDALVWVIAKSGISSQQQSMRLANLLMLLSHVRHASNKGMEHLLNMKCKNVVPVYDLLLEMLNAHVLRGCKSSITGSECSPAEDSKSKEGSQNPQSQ
Sequence of Induced myeloid leukemia cell differentiation protein Mcl-1 (Q07820 whole entry): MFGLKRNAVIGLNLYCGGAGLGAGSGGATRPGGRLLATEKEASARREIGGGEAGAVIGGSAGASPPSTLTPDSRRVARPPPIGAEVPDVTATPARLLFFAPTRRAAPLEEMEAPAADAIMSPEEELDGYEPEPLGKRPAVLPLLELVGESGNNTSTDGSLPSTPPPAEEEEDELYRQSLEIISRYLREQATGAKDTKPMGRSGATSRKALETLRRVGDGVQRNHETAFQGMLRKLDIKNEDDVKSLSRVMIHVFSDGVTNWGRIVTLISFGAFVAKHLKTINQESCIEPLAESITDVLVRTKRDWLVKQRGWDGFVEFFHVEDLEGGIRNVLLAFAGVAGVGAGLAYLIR
Sequence of Voltage-dependent T-type calcium channel subunit alpha-1H (O95180 whole entry): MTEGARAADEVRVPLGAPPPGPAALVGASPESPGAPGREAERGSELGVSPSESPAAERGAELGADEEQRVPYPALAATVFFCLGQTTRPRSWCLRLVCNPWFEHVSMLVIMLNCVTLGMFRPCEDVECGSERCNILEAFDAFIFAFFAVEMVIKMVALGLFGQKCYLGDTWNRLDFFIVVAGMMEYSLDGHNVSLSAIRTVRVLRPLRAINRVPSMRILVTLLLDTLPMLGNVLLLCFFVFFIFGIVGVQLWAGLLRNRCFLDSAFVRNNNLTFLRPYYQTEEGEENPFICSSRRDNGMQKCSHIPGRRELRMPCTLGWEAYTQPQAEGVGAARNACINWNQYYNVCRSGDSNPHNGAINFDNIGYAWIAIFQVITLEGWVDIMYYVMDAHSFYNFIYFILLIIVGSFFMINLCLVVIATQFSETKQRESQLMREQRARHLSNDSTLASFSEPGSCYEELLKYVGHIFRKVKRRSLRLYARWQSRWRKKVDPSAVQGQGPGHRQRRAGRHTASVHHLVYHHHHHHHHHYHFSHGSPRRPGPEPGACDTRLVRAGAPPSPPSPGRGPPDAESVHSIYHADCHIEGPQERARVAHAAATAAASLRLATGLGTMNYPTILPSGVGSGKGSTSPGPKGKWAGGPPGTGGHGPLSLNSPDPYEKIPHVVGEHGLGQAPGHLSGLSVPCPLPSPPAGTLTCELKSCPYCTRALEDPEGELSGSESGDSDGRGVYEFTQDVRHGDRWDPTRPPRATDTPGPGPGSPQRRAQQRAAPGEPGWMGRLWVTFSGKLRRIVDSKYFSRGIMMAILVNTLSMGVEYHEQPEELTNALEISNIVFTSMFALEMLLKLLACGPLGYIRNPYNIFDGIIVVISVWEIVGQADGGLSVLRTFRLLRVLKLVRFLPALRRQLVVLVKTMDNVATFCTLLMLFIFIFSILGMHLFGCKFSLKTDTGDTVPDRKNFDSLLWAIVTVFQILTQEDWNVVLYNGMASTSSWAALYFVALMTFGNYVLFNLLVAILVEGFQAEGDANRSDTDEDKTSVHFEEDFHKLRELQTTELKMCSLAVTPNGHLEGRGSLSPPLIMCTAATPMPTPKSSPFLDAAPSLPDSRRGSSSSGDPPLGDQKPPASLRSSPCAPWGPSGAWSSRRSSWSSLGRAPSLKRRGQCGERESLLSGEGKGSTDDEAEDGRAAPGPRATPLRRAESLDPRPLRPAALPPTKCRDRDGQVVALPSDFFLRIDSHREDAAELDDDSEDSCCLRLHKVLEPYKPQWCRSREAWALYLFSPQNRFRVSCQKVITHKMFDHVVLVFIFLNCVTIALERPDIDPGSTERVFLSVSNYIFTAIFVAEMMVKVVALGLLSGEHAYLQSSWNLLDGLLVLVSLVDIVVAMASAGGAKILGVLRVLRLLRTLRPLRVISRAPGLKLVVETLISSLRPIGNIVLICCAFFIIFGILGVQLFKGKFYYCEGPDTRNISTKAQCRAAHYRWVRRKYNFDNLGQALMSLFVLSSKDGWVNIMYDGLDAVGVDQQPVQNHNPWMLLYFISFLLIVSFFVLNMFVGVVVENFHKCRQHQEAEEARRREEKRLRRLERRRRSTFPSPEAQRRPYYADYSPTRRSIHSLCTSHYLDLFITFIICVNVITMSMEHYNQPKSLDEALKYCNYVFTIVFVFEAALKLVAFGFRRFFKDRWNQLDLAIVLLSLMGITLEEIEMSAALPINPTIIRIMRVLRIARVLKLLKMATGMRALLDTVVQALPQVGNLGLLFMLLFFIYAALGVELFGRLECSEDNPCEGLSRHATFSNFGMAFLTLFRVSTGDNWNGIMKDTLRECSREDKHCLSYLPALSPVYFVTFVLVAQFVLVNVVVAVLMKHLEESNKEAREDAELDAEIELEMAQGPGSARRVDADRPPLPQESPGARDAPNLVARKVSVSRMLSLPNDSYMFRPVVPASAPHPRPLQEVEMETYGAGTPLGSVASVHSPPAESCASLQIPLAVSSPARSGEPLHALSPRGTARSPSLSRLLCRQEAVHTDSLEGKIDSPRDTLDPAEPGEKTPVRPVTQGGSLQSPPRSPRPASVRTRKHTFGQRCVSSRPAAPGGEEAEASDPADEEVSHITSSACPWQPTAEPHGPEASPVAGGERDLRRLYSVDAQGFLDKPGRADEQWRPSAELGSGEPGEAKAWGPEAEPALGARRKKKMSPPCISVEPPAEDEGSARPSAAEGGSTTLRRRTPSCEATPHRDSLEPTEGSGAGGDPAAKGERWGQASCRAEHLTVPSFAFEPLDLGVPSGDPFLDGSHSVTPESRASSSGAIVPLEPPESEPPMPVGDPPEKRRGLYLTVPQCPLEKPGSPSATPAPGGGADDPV
Sequence of Genome polyprotein (P29990 2492-3391 limits assumed): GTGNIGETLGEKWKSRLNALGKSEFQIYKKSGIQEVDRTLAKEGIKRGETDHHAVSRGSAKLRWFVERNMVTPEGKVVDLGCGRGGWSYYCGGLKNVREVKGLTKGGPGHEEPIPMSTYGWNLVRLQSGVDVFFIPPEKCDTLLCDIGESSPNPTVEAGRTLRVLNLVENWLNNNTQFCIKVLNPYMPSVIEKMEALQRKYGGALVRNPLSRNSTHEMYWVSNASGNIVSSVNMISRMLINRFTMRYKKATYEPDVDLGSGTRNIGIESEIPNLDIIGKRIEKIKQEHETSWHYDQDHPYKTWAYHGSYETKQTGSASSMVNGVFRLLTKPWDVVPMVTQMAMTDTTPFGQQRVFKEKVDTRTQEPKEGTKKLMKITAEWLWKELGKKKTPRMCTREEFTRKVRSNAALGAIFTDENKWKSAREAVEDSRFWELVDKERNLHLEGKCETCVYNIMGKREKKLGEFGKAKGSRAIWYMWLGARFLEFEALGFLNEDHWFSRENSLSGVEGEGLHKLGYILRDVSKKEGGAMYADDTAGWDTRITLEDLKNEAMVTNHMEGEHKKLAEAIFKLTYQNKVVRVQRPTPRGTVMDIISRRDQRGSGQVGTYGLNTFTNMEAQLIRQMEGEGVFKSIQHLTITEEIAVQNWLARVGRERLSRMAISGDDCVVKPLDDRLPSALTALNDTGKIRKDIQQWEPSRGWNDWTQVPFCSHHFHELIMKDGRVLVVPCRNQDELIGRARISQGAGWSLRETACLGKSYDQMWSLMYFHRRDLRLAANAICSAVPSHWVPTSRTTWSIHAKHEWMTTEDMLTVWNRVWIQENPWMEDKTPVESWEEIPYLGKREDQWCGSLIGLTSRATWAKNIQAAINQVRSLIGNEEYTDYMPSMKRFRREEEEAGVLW

SMILES: Cc1cccc(N2CCN(C(=O)c3ccc(C[S+]([O-])Cc4ccc(Cl)cc4)o3)CC2)c1C (configuration not stated)
- IC50 [1]: > 69.5 µM (inactive)
- IC50 [2]: > 7.72 µM (active)

SMILES: O=C(Cn1nnc(-c2ccc3c(c2)OCO3)n1)NCc1ccco1
- IC50 (Estrogen receptor beta [3]): 19.6 µM (active)
- IC50 (Estrogen receptor beta [4]): 3 µM (not active)

SMILES: Cc1ccc(NC(=O)C2CCCCC2C(=O)O)cc1Cl (configuration not stated)
- IC50 [5]: > 100 µM (active)

SMILES: CCOC(=O)C1CCCN(C(=O)c2ccc(CS(=O)(=O)c3ccc(Br)cc3)o2)C1 (configuration not stated)
- IC50 [6]: > 100 µM (active)

SMILES: O=C(Nc1ccccc1)Nc1cc(Cl)cc(Cl)c1
- EC50 [7]: 10.6 µM (active)
- EC50 (Streptokinase A): 16.8 µM (active)
- EC50 (Streptococcus): 48.6 µM (active)
- AC50 [8]: 4.3 µM (active)
- AC50 [9]: 17.2 µM (active)

SMILES: COc1ccc(OCc2nn3c(-c4cccc(OC)c4)nnc3s2)cc1
- IC50 [5]: > 100 µM (active)

SMILES: Cc1cc(SCC(=O)N/N=C/c2ccc(O)c(O)c2O)c(C)cc1Br
- EC50 [10]: > 150 µM (inconclusive)
- EC50 [11]: 11 µM (active)
- EC50 [7]: 3.27 µM (active)
- EC50 (cells [12]): 11.6 µM (active)
- EC50 [13]: 13.9 µM (active)
- EC50 [14]: 26.7 µM (active)
- EC50 [15]: 1.45 µM (active)
- EC50 (cells [16]): > 350 µM (not active)
- IC50 [17]: 5.65 µM (active)
- EC50 (Streptococcus): 6.34 µM (active)
- IC50 [18]: > 50 µM (not active)
- CC50 (Vero): > 40 µM (active)
- IC50 (Genome polyprotein): 17.4 µM (active)
- CC50 [19]: 2.57 µM (active)

SMILES: CN(C)S(=O)(=O)c1cccc(NC(=O)COC(=O)c2cccc(S(=O)(=O)N3CCc4ccccc4C3)c2)c1
- IC50 [1]: > 69.5 µM (inactive)
- IC50 [2]: > 69.5 µM (inactive)

SMILES: Cc1cc(-n2ccnc2)n2c(nc3ccccc32)c1C#N
- IC50 (Coagulation factor XII): > 50 µM (inactive)
- IC50 [6]: > 100 µM (active)

SMILES: Cc1sc2nc3ccc(N4CCCC4)nn3c(=O)c2c1C
- IC50 [18]: > 50 µM (not active)

SMILES: Cn1c(C(=O)Nc2ccc3c(c2)OCO3)cc2c(=O)n(C)c3ccccc3c21
- IC50 (Estrogen receptor): 22.6 µM (active)
- IC50 (Estrogen receptor beta [3]): > 50 µM (not active)
- IC50 (Estrogen receptor beta [4]): 0.0468 µM (not active)

SMILES: Cn1ccnc1Sc1ccc(/C=N/NC(=O)c2ccccc2O)cc1[N+](=O)[O-]
- IC50 [6]: > 100 µM (active)

SMILES: O=C(Nc1ccc(Cl)c(C(F)(F)F)c1)c1ccco1
- EC50 [20]: 10.6 µM (active)
- IC50 (Protein skinhead-1): 45 µM (active)
- AC50 [21]: 4.01 µM (active)

SMILES: COc1ccc(CCNC(=O)c2ccc(CN3CCC(Cc4ccccc4)CC3)cc2)cc1
- IC50 [5]: > 100 µM (active)

SMILES: O=C(CSc1nnc(COc2ccccc2)n1-c1ccc(Cl)cc1)Nc1ccccc1-c1ccccc1
- IC50 [1]: > 69.5 µM (inactive)
- IC50 [2]: > 69.5 µM (inactive)

SMILES: Cn1nnnc1SCC(=O)NCc1cccc(C(=O)O)c1
- AC50 [9]: 10.5 µM (active)

SMILES: O=C1N(Cc2cccnc2)C[C@@H]2C[C@@H](c3ccc4nsnc4c3)N3CCC[C@@]123
- IC50 [6]: > 100 µM (active)

SMILES: COc1cc(C2C(C#N)=C(N)Oc3cc(C)oc(=O)c32)cc2c1OCO2 (configuration not stated)
- IC50 (Estrogen receptor): 26.2 µM (active)
- IC50 (Estrogen receptor beta [3]): 13.6 µM (active)
- IC50 (Estrogen receptor beta [4]): 9.24 µM (not active)

SMILES: O=C(/C=C/Nc1ccc(Oc2ccccc2Cl)cc1)c1ccco1
- IC50 [5]: > 100 µM (active)
